What all share (format): in vivo
For data set [1], the system named is barnyard grass. Kind of data set: Herbicidal activity test against upland field weeds (foliar treatment test). Conditions: 50 g ai/ha, scale 0-100; for pest or weed control at 50 g/ha: Echinochloa crus-galli. Details: key to Foliar treatment herbicidal activity, barnyard grass: 0 (no control); 100 (complete control). A digest of the protocol:
(§1)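 Weeds were raised from seed or rootstocks in horticultural soil in a greenhouse (30±5° C., 14/10 h light/dark), then foliage was hand-sprayed with compound at 50 or 75 g a.i./ha in 50% acetone with 0.1% Tween-20. Control was scored visually 0–100 against untreated plants after 14 days, or 21 if needed.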

Another data set concerns quack grass. Described as above. Conditions: 50 g ai/ha, scale 0-100. Set-up: key to Foliar treatment herbicidal activity, quack grass: 0 (no control); 100 (complete control). The method, boiled down: as §1
In the next data set the test system is fall panicum. Described as above. Conditions: 50 g ai/ha, scale 0-100; for pest or weed control at 50 g/ha: Panicum dichotomiflorum. The method, boiled down: as §1
Data set [2] has as its system cocklebur. The data set is described as above. Details: key to Foliar treatment herbicidal activity, Cocklebur: 0 (no control); 100 (complete control). Conditions: 50 g ai/ha, scale 0-100; for pest or weed control at 50 g/ha: Xanthium strumarium. A digest of the protocol:
as §1

The subject of data set [3] is barnyard grass. Description: Herbicidal activity test against upland field weeds (soil treatment test). Details: key to Soil treatment herbicidal activity, barnyard grass: 0 (no control); 100 (complete control). Conditions: 50 g ai/ha, scale 0 (no control) to 100 (complete control). A digest of the protocol:
(§2)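 Pre-emergence test: seeds or rootstocks were sown in fertilized sandy loam, and the next day the soil surface was sprayed with compound at 50 or 75 g a.i./ha in 50% acetone/0.1% Tween-20. Plants were grown in a greenhouse (30±5 °C, 14/10 h light/dark), then visually scored 0–100 against untreated at 14 d (21 d if needed).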

The test system of another data set is indian jointvetch. The data set is described as above. To be noted: 50 g ai/ha, scale 0 (no control) to 100 (complete control). Details: key to Soil treatment herbicidal activity, Indian jointvetch: 0 (no control); 100 (complete control). A digest of the protocol:
as §2

The subject of data set [4] is cocklebur. The data set is described as above. Set-up: key to Soil treatment herbicidal activity, Cocklebur: 0 (no control); 100 (complete control). Conditions: 50 g ai/ha, scale 0 (no control) to 100 (complete control). The method, boiled down: as §2
The next data set has as its system bindweed. The description is as above. Conditions: 50 g ai/ha, scale 0 (no control) to 100 (complete control). Details: key to Soil treatment herbicidal activity, Bindweed: 0 (no control); 100 (complete control). A digest of the protocol: as §2
Another data set has as its system corn. Kind of data set: Phytotoxicity test for field crops (soil treatment test). Details: key: 0 (no harm); 9 (complete withered). The method, boiled down: (§3)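 Visual phytotoxicity grading (0 no harm to 9 complete withering, relative to untreated control) 10 and 20 days after a pre-emergence soil spray applied one day post-sowing. Rates 19˜300 g a.i./ha in 33% acetone/0.1% Tween-20; sterilized soil pH 6.1, fertilized; greenhouse 30±5° C, 14/10 h photoperiod.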

A further data set has as its system cotton. The data set is described as above. Set-up: key: 0 (no harm); 9 (complete withered). A digest of the protocol: as §3
In the next data set the test system is rice. Described as above. Details: key: 0 (no harm); 9 (complete withered). A digest of the protocol:
as §3

The subject of a further data set is soybean. The description is as above. Details: key: 0 (no harm); 9 (complete withered). The method, boiled down:
as §3

Another data set relates to wheat. The data set is described as above. Set-up: key: 0 (no harm); 9 (complete withered). A digest of the protocol: as §3
The test system of another data set is crabgrass. Description: Herbicidal activity test against upland field weeds (soil treatment test). Conditions: 50 g ai/ha, scale 0 (no control) to 100 (complete control). Set-up: key to Soil treatment herbicidal activity, Crabgrass: 0 (no control); 100 (complete control). The method, boiled down: as §2
The mark [5] stands for this setting: 50 g ai/ha, Corn (10 days after treatment).
[6] abbreviates: 50 g ai/ha, Corn (20 days after treatment).
[7] abbreviates: 100 g ai/ha, Corn (10 days after treatment).
The mark [8] stands for this setting: 100 g ai/ha, Corn (20 days after treatment).
The mark [9] stands for this setting: 50 g ai/ha, Cotton (10 days after treatment).
Setting [10] is: 50 g ai/ha, Cotton (20 days after treatment).
The mark [11] stands for this setting: 100 g ai/ha, Cotton (10 days after treatment).
Where [12] appears, read: 100 g ai/ha, Cotton (20 days after treatment).
The mark [13] stands for this setting: 50 g ai/ha, Rice (10 days after treatment).
Setting [14] is: 50 g ai/ha, Rice (20 days after treatment).
The mark [15] stands for this setting: 100 g ai/ha, Rice (10 days after treatment).
Setting [16] is: 100 g ai/ha, Rice (20 days after treatment).
The mark [17] stands for this setting: 50 g ai/ha, Soybean (10 days after treatment).
Where [18] appears, read: 100 g ai/ha, Soybean (10 days after treatment).
The mark [19] stands for this setting: 100 g ai/ha, Soybean (20 days after treatment).
Setting [20] is: 50 g ai/ha, Wheat (10 days after treatment).
The mark [21] stands for this setting: 50 g ai/ha, Wheat (20 days after treatment).
Setting [22] is: 100 g ai/ha, Wheat (10 days after treatment).
The mark [23] stands for this setting: 100 g ai/ha, Wheat (20 days after treatment).

One may read the pest or weed control as the degree to which the test organism was suppressed or injured, in per cent.

For `Cn1nnnc1NC(=O)c1ccc(C(F)(F)F)nc1OCc1nnnn1C(F)F` [Compound No. 1-26, 2-((1-(difluoromethyl)-1H-tetrazol-5-yl)methoxy)-N-(1-methyl-1H-tetrazol-5-yl)-6-(trifluoromethyl)nicotinamide], the pest or weed control at 50 g/ha was found to be 95% in the data set with barnyard grass [1], 98% in the data set with fall panicum, 70% in the data set on cocklebur [2] and 70% in the data set with indian jointvetch. Further, in the data set with quack grass, the “Foliar treatment herbicidal activity, quack grass” value is given as 0. In the data set on barnyard grass [3], the “Soil treatment herbicidal activity, barnyard grass” value amounted to 100. In addition, the “Soil treatment herbicidal activity, Cocklebur” value in the data set with cocklebur [4] was determined as 0. Also, the “Soil treatment herbicidal activity, Bindweed” value in the data set on bindweed was determined as 0. Moreover, the “Soil treatment phytotoxicity, Corn” value in the data set with corn (setting [5]) stood at 0; in the data set on corn (setting [6]), 0; with corn (setting [7]), 1; in the data set on corn (setting [8]), 1. Further, the “Soil treatment phytotoxicity, Cotton” value in the data set on cotton (setting [9]) was determined as 1; in the data set on cotton (setting [10]), 0; with cotton (setting [11]) it was 1; in the data set on cotton (setting [12]) it was 1. The “Soil treatment phytotoxicity, Rice” value with rice (setting [13]) is given as 1; with rice (setting [14]), 8; in the data set on rice (setting [15]) it was 3; in the data set on rice (setting [16]), 9. Also, the entries for the “Soil treatment phytotoxicity, Soybean” value in the data set on soybean (setting [17]), with soybean (setting [18]) and in the data set on soybean (setting [19]) were 0, 0 and 4, respectively. The “Soil treatment phytotoxicity, Wheat” value in the data set on wheat (setting [20]), in the data set with wheat (setting [21]), in the data set with wheat (setting [22]) and in the data set on wheat (setting [23]) was 0 throughout.
With `Cn1nnc(CS(=O)(=O)Cc2nc(C(F)(F)F)ccc2C(=O)Nc2nnnn2C)n1` [Compound No. 2-105, N-(1-methyl-1H-tetrazol-5-yl)-2-((((2-methyl-2H-tetrazol-5-yl)methyl)sulfonyl)methyl)-6-(trifluoromethyl)nicotinamide], in the data set on barnyard grass [1], the “Foliar treatment herbicidal activity, barnyard grass” value was determined as 0. For the same molecule, in the data set with quack grass, the “Foliar treatment herbicidal activity, quack grass” value came out at 0. The pest or weed control at 50 g/ha was determined as 50% in the data set on fall panicum; 98% in the data set on cocklebur [2]; 90% in the data set on indian jointvetch; 98% in the data set on cocklebur [4] (Xanthium strumarium); 30% in the data set on bindweed. Besides, in the data set on barnyard grass [3], the “Soil treatment herbicidal activity, barnyard grass” value is reported as 0. Besides, the “Soil treatment herbicidal activity, Crabgrass” value in the data set with crabgrass worked out at 0.
In the case of `COC(=O)OC(C)N(C(=O)c1ccc(C(F)(F)F)nc1COCc1nnn(C)n1)c1nnnn1C` (stereo not drawn) [Compound No. 4-4, methyl(1-(N-(1-methyl-1H-tetrazol-5-yl)-2-(((2-methyl-2H-tetrazol-5-yl)methoxy)methyl)-6-(trifluoromethyl)nicotinamido)ethyl)carbonate], the “Foliar treatment herbicidal activity, barnyard grass” value in the data set on barnyard grass [1] is recorded as 100. For the same molecule, the “Foliar treatment herbicidal activity, quack grass” value in the data set on quack grass is 0. Further, in the data set with fall panicum, the “Foliar treatment herbicidal activity, Fall panicum” value worked out at 98. In the data set with cocklebur [2], the “Foliar treatment herbicidal activity, Cocklebur” value was 98. Besides, in the data set with barnyard grass [3], the “Soil treatment herbicidal activity, barnyard grass” value amounted to 0. Also, the “Soil treatment herbicidal activity, Crabgrass” value in the data set with crabgrass worked out at 0. In the data set with cocklebur [4], the “Soil treatment herbicidal activity, Cocklebur” value was 0. The “Soil treatment herbicidal activity, Bindweed” value with bindweed was found to be 0.
Regarding `Cn1nc(COCc2nc(C(F)(F)F)ccc2C(=O)Nc2nnnn2C)nc1Cl` [Compound No. 2-135, 2-(((5-chloro-1-methyl-1H-1,2,4-triazol-3-yl)methoxy)methyl)-N-(1-methyl-1H-tetrazol-5-yl)-6-(trifluoromethyl)nicotinamide], the values for the pest or weed control at 50 g/ha with barnyard grass [1], with fall panicum and in the data set on cocklebur [2] were 98%, 50% and 95%, respectively. In the data set with quack grass, the “Foliar treatment herbicidal activity, quack grass” value was determined as 0. Moreover, the “Soil treatment herbicidal activity, barnyard grass” value in the data set on barnyard grass [3] was determined as 0. Besides, in the data set on crabgrass, the “Soil treatment herbicidal activity, Crabgrass” value is 0. In the data set with indian jointvetch, the “Soil treatment herbicidal activity, Indian jointvetch” value was 0. The “Soil treatment herbicidal activity, Cocklebur” value in the data set with cocklebur [4] is given as 0. Also, the “Soil treatment phytotoxicity, Corn” value in the data set with corn (setting [5]), in the data set with corn (setting [6]), in the data set with corn (setting [7]) and in the data set on corn (setting [8]) was 0 each time. For the same molecule, the “Soil treatment phytotoxicity, Cotton” value turned out to be 1 in the data set on cotton (setting [9]), 3 with cotton (setting [10]), 1 in the data set on cotton (setting [11]) and 4 in the data set with cotton (setting [12]). Also, the “Soil treatment phytotoxicity, Rice” value is recorded as 6 in the data set with rice (setting [13]), 8 in the data set on rice (setting [14]), 7 with rice (setting [15]) and 8 in the data set on rice (setting [16]). Further, the “Soil treatment phytotoxicity, Soybean” value in the data set with soybean (setting [17]) worked out at 0; with soybean (50 g ai/ha, Soybean (20 days after treatment)) it was 0; in the data set on soybean (setting [18]), 2; with soybean (setting [19]), 3. For the same molecule, the “Soil treatment phytotoxicity, Wheat” value in the data set on wheat (setting [20]), with wheat (setting [21]), with wheat (setting [22]) and in the data set with wheat (setting [23]) was 0 each time.
On to `CCOC(=O)OC(C)N(C(=O)c1ccc(C(F)(F)F)nc1COCc1nnn(C)n1)c1nnnn1C` (stereo not drawn) [Compound No. 4-8, ethyl(1-(N-(1-methyl-1H-tetrazol-5-yl)-2-(((2-methyl-2H-tetrazol-5-yl)methoxy)methyl)-6-(trifluoromethyl)nicotinamido)ethyl)carbonate], for which, in the data set on barnyard grass [1], the “Foliar treatment herbicidal activity, barnyard grass” value worked out at 98. Besides, the “Foliar treatment herbicidal activity, quack grass” value with quack grass is reported as 0. Also, the “Foliar treatment herbicidal activity, Fall panicum” value in the data set with fall panicum was 80. In the data set on cocklebur [2], the “Foliar treatment herbicidal activity, Cocklebur” value was 100. Also, the “Soil treatment herbicidal activity, barnyard grass” value in the data set with barnyard grass [3] amounted to 100. Also, in the data set on crabgrass, the “Soil treatment herbicidal activity, Crabgrass” value is 100. Further, the “Soil treatment herbicidal activity, Indian jointvetch” value in the data set with indian jointvetch worked out at 100. Moreover, the “Soil treatment herbicidal activity, Cocklebur” value with cocklebur [4] came to 0. Also, the “Soil treatment herbicidal activity, Bindweed” value in the data set on bindweed is on record as 0.

The values above are taken from US12495798B2, “Nicotinamide compound and herbicidal composition comprising compound” (KOREA RESEARCH INSTITUTE OF CHEMICAL TECHNOLOGY, priority 2019, dated 2025).
